According to a melting point compilation (Tetko et al.):

**Q.** Which melting point does the source give for CC(C)(C)OC(=O)N1CCc2n[nH]c(=O)cc2C1 here?
**A.** 187 to 189 °C

**Q.** With CCOC(=O)c1csc(Nc2ccc(OC)cc2)n1 as the compound, how does the melting point read?
**A.** 117 to 119 °C

**Q.** With CC(C)(C)c1ccc(/C=C/c2cc(C(=O)O)c3cc(Br)ccc3n2)cc1 as the compound, how does the melting point read?
**A.** 319 to 321 °C

**Q.** Which melting point does the source give for ClCc1nc(-c2ccco2)no1 here?
**A.** 82 to 84 °C

**Q.** For COc1ccc(-c2nnc(S)n2N)c(OC)c1, which melting point is on record?
**A.** 200 to 202 °C

**Q.** With O=C(O)CN1c2cccc3cccc(c23)S1(=O)=O as the compound, how does the melting point read?
**A.** 216 to 218 °C

**Q.** With O=C(O)CS(=O)(=O)c1ccc(Cl)cc1 as the compound, how does the melting point read?
**A.** 122 to 124 °C

**Q.** With Nc1ncc2c(n1)CCC1(C2)OCCO1 as the compound, how does the melting point read?
**A.** 215 to 217 °C

**Q.** Which melting point does the source give for CCOCCOc1ccc(Br)cc1C=O here?
**A.** 28 to 30 °C

**Q.** Which melting point does the source give for NNC(=O)c1ccc(Cl)cc1F here?
**A.** 135 to 137 °C

**Q.** For O=C(O)C(Oc1ccc(Cl)cc1)c1ccccc1 (configuration not stated), which melting point is on record?
**A.** 161 to 163 °C

**Q.** For N#CCCOc1ccc(Br)cc1, which melting point is on record?
**A.** 76 to 78 °C

**Q.** For CC(=O)Nc1ccc(Cl)cc1N, which melting point is on record?
**A.** 141 to 143 °C

**Q.** For O=C(O)Cc1ccc(NC(=O)c2cscn2)cc1, which melting point is on record?
**A.** 184 to 186 °C

**Q.** With O=C(Nc1cc(F)ccc1C(=O)O)c1cccc(Br)c1 as the compound, how does the melting point read?
**A.** 217 to 219 °C

**Q.** Which melting point does the source give for O=c1[nH]c(-c2cccc(C(F)(F)F)c2)cs1 here?
**A.** 182 to 184 °C

**Q.** Which melting point does the source give for Cc1cc(C)n(CCO)n1 here?
**A.** 74 to 76 °C

**Q.** For O=C(O)c1cccc(S(=O)(=O)N2CCCCC2)c1, which melting point is on record?
**A.** 178 to 180 °C

**Q.** Which melting point does the source give for O=S(=O)(c1ccc2[nH]c(S)nc2c1)N1CCOCC1 here?
**A.** 285 to 287 °C

**Q.** Which melting point does the source give for CCCCCCn1cc(S(=O)(=O)Cl)c(=O)[nH]c1=O here?
**A.** 157 to 159 °C

**Q.** With CS(=O)(=O)c1cc(Br)ccc1[N+](=O)[O-] as the compound, how does the melting point read?
**A.** 152 to 154 °C

**Q.** Which melting point does the source give for O=S1(=O)CCC(CO)CC1 here?
**A.** 86 to 88 °C

**Q.** Which melting point does the source give for Cc1noc(-c2ccccc2N)n1 here?
**A.** 120 to 122 °C

**Q.** Which melting point does the source give for COC(=O)C1CCc2[nH]ncc2C1 (configuration not stated) here?
**A.** 79 to 81 °C

**Q.** Which melting point does the source give for CC(=O)c1c(Cl)nc2ccccn12 here?
**A.** 116 to 118 °C

**Q.** For CCOC(=O)CS(=O)(=O)c1ccc(Br)cc1, which melting point is on record?
**A.** 45 to 47 °C

**Q.** With Nc1nc(CCl)nc(Nc2ccccc2)n1 as the compound, how does the melting point read?
**A.** 139 to 141 °C

**Q.** With COc1cc(Cl)c(C(=O)O)cc1OC as the compound, how does the melting point read?
**A.** 179 to 181 °C

**Q.** Which melting point does the source give for N#CC1CC(=O)N(c2ccccc2)C1 (configuration not stated) here?
**A.** 138 to 140 °C

**Q.** Which melting point does the source give for CCN(CCO)c1ccc(NS(=O)(=O)c2ccc(N)cc2)cc1 here?
**A.** 114 to 116 °C

**Q.** For COC(=O)c1ccc(CBr)cc1F, which melting point is on record?
**A.** 74 to 76 °C

**Q.** For Cc1cc(N)n(-c2ncccn2)n1, which melting point is on record?
**A.** 203 to 205 °C

**Q.** With COc1ccc(C=C(CC(=O)O)c2nc3ccccc3s2)cc1 as the compound, how does the melting point read?
**A.** 154 to 156 °C

**Q.** With O=S(=O)(Cl)c1ccc(OCC(F)(F)F)cc1 as the compound, how does the melting point read?
**A.** 55 to 57 °C

**Q.** With CC(=O)c1cccc(NS(C)(=O)=O)c1 as the compound, how does the melting point read?
**A.** 91 to 93 °C

**Q.** Which melting point does the source give for COC(=O)N1CCC(N)CC1 here?
**A.** 40 to 42 °C

**Q.** For Cc1cc(F)c2c(c1)C(=O)C(=O)N2, which melting point is on record?
**A.** 225 to 227 °C

**Q.** With O=C(O)C(NC1CC1)c1ccc(O)cc1 (configuration not stated) as the compound, how does the melting point read?
**A.** 210 to 212 °C

**Q.** For Cc1c(C(=O)O)cnn1-c1ccccn1, which melting point is on record?
**A.** 174 to 176 °C

**Q.** For CS(=O)(=O)c1ccc(Cl)c(S(N)(=O)=O)c1, which melting point is on record?
**A.** 228 to 230 °C

**Q.** With O=C(O)CCC(=O)c1ccc(F)cc1F as the compound, how does the melting point read?
**A.** 113 to 115 °C

**Q.** Which melting point does the source give for CCC(C(=O)O)c1cccc(C(F)(F)F)c1 (configuration not stated) here?
**A.** 41 to 43 °C

**Q.** For O=C(O)c1cccnc1Sc1ccc(Br)cc1, which melting point is on record?
**A.** 223 to 225 °C

**Q.** For COCCCS(N)(=O)=O, which melting point is on record?
**A.** 41 to 43 °C

**Q.** Which melting point does the source give for O=C(NCc1ccncc1)c1ccc(O)c(Cl)c1 here?
**A.** 179 to 181 °C

**Q.** For CNC(=O)c1ccc(NC)c([N+](=O)[O-])c1, which melting point is on record?
**A.** 207 to 209 °C

**Q.** For O=C(CCl)N(Cc1ccc(F)cc1)C12CC3CC(CC(C3)C1)C2, which melting point is on record?
**A.** 129 to 131 °C

**Q.** With O=S(=O)(Cl)c1cccc(-c2nnco2)c1 as the compound, how does the melting point read?
**A.** 87 to 89 °C

**Q.** Which melting point does the source give for CNc1ncc([N+](=O)[O-])cc1C#N here?
**A.** 181 to 183 °C

**Q.** For COc1ccc(C(=O)CCl)cc1Br, which melting point is on record?
**A.** 85 to 87 °C

**Q.** With O=C(O)c1ccc(S(=O)(=O)N2CCCC2)cc1 as the compound, how does the melting point read?
**A.** 243 to 245 °C

**Q.** For Cc1ccc(-c2noc(Cl)n2)cc1, which melting point is on record?
**A.** 40 to 42 °C

**Q.** With Cc1nn(C)c2sc(C(=O)NC(C)C(=O)O)cc12 (configuration not stated) as the compound, how does the melting point read?
**A.** 269 to 271 °C

**Q.** With CCC1(CC)NC(=O)N(CC(=O)O)C1=O as the compound, how does the melting point read?
**A.** 169 to 173 °C

**Q.** For N#Cc1cncs1, which melting point is on record?
**A.** 51 to 53 °C

**Q.** Which melting point does the source give for CCCC(C)=CC(=O)O here?
**A.** 33 to 35 °C

**Q.** For COCc1nc(Cl)c2c(-c3ccccc3)csc2n1, which melting point is on record?
**A.** 62 to 64 °C

**Q.** Which melting point does the source give for CCn1cc(C(F)(F)C(=O)O)cn1 here?
**A.** 99 to 101 °C

**Q.** With Cc1oc2cc(O)ccc2c(=O)c1-c1ccccc1Cl as the compound, how does the melting point read?
**A.** 182 to 184 °C

**Q.** Which melting point does the source give for COc1ccc(C(CNC(=O)CCl)c2c[nH]c3ccccc23)cc1 (configuration not stated) here?
**A.** 157 to 159 °C

**Q.** Which melting point does the source give for Cc1ccnc(Oc2ccc(N)cc2)n1 here?
**A.** 119 to 121 °C

**Q.** For CC(=O)NC1CCC(N)CC1 (configuration not stated), which melting point is on record?
**A.** 129 to 131 °C

**Q.** With C#CCNc1nccs1 as the compound, how does the melting point read?
**A.** 65 to 67 °C

**Q.** For O=C(O)c1cc(Cl)cc2cccnc12, which melting point is on record?
**A.** 224 to 226 °C

**Q.** With O=C(O)C12CC3CC(CC(F)(C3)C1)C2 as the compound, how does the melting point read?
**A.** 109 to 111 °C

**Q.** With COC(=O)CC(NC(=S)NC12CC3CC(CC(C3)C1)C2)C(=O)OC (configuration not stated) as the compound, how does the melting point read?
**A.** 117 to 119 °C

**Q.** With Cc1csc2ccc(C#N)cc12 as the compound, how does the melting point read?
**A.** 97 to 99 °C

**Q.** With O=C(O)CCCc1ccc(Br)s1 as the compound, how does the melting point read?
**A.** 54 to 58 °C

**Q.** With CC(C)(C)c1cccc(OCC(=O)O)c1 as the compound, how does the melting point read?
**A.** 117 to 119 °C

**Q.** With N#CC1CSCCN1 (configuration not stated) as the compound, how does the melting point read?
**A.** 81 to 83 °C

**Q.** For O=C(O)c1ccn(-c2ccc(Cl)cc2)n1, which melting point is on record?
**A.** 169 to 171 °C

**Q.** Which melting point does the source give for O=C(O)CCC(=O)c1ccc(F)c(F)c1 here?
**A.** 84 to 86 °C

**Q.** With Oc1cccc(Oc2cccnc2)c1 as the compound, how does the melting point read?
**A.** 109 to 111 °C

**Q.** For NC(=O)COCc1ccccc1, which melting point is on record?
**A.** 92 to 94 °C

**Q.** For Cc1c(F)cc(C(=O)O)cc1S(=O)(=O)Cl, which melting point is on record?
**A.** 179 to 181 °C

**Q.** With COc1ccccc1NC(=O)CCCCC(=O)O as the compound, how does the melting point read?
**A.** 82 to 84 °C

**Q.** Which melting point does the source give for Cn1cc(C(=O)O)c(C(F)(F)F)c1 here?
**A.** 205 to 207 °C

**Q.** For CCc1cccc(C)c1Nc1nnc(S)s1, which melting point is on record?
**A.** 155 to 157 °C

**Q.** For Cc1cc(S(=O)(=O)Cl)ccc1-n1cnnn1, which melting point is on record?
**A.** 134 to 136 °C

**Q.** With CCOC(=O)c1ccc(C=O)o1 as the compound, how does the melting point read?
**A.** 35 to 37 °C

**Q.** With CS(=O)(=O)Cc1cccc(C(=O)O)c1 as the compound, how does the melting point read?
**A.** 188 to 190 °C

**Q.** For CC1CCC(NC(=O)CN2CCNCC2)CC1 (configuration not stated), which melting point is on record?
**A.** 120 to 122 °C

**Q.** With CCC(=O)c1ccc2c(c1)CC(=O)N2C as the compound, how does the melting point read?
**A.** 205 to 207 °C

**Q.** For Nc1ccc(Cc2nnc3ccccn23)cc1, which melting point is on record?
**A.** 207 to 209 °C

**Q.** With O=C1NCc2ccccc2N1CCO as the compound, how does the melting point read?
**A.** 107 to 109 °C

**Q.** With O=C(O)C1CCN(c2cccc(Br)c2)C1=O (configuration not stated) as the compound, how does the melting point read?
**A.** 144 to 146 °C

**Q.** Which melting point does the source give for Cc1cc(C)c2oc(N)nc2c1 here?
**A.** 197 to 199 °C

**Q.** For CC1(c2ccccc2)NC(=O)N(NC(=O)CCl)C1=O (configuration not stated), which melting point is on record?
**A.** 150 to 152 °C

**Q.** With CCc1n[nH]c(=O)c(C#N)c1CC as the compound, how does the melting point read?
**A.** 166 to 168 °C

**Q.** For CN(C)C(=O)COc1ccc(C#N)cc1, which melting point is on record?
**A.** 110 to 112 °C

**Q.** Which melting point does the source give for NCc1ccc(NC(=O)CN2CCc3ccccc32)cc1 here?
**A.** 126 to 128 °C

**Q.** For O=C(O)CC(O)(c1nccn1Cc1ccccc1)C(F)(F)F (configuration not stated), which melting point is on record?
**A.** 152 to 154 °C

**Q.** For CCNC(=O)CCC(=O)O, which melting point is on record?
**A.** 84 to 86 °C

**Q.** With CN(c1ccc(CN)cc1)S(C)(=O)=O as the compound, how does the melting point read?
**A.** 46 to 48 °C

**Q.** With CC(C)C(=O)N1CCC(C(=O)O)CC1 as the compound, how does the melting point read?
**A.** 102 to 104 °C

**Q.** For O=C(O)CCCCc1ccc(Br)cc1, which melting point is on record?
**A.** 90 to 92 °C

**Q.** Which melting point does the source give for O=C1NC2(CCCCC2)C(=O)N1Cc1ccccc1 here?
**A.** 151 to 153 °C

**Q.** With NC(=O)Cn1ccc(=O)c2ccccc21 as the compound, how does the melting point read?
**A.** 294 to 296 °C

**Q.** For O=Cc1c(-c2ccc(Br)s2)nc2ccccn12, which melting point is on record?
**A.** 186 to 188 °C

**Q.** Which melting point does the source give for O=C(O)c1cc(=O)n(-c2ccccc2)[nH]1 here?
**A.** 256 to 258 °C

**Q.** With O=C(O)CCc1ccc(O)c(Cl)c1 as the compound, how does the melting point read?
**A.** 84 to 86 °C

**Q.** With Nc1nsc(N2CCCC2)n1 as the compound, how does the melting point read?
**A.** 244 to 246 °C
